Patent US20260327215A1, “ISOXAZOLIDINES AS RIPK1 INHIBITORS AND USE THEREOF” (GENZYME CORPORATION, priority 2022, published 2026)
pIC50: −log10 of the molar value.

Legend:
[1] = system: U937 cells; assay: U937 cell assay: inhibition of TNFa/zVAD-induced cell death (necroptosis), MTS viability; type: cell-based
[2] = molecular target: T1, hRIPK1 (aa 1-375) fusion protein (Homo sapiens, UniProt Q13546); assay: ADP Glo assay: RIPK1 autophosphorylation (ATP to ADP conversion) inhibition; type: biochemical; conditions: 50 μM ATP; 30 min preincubation, 240 min incubation at room temperature; 1% DMSO
T1 construct: hRIPK1 (aa 1-375) fusion protein
T1 sequence (Q13546 1-375): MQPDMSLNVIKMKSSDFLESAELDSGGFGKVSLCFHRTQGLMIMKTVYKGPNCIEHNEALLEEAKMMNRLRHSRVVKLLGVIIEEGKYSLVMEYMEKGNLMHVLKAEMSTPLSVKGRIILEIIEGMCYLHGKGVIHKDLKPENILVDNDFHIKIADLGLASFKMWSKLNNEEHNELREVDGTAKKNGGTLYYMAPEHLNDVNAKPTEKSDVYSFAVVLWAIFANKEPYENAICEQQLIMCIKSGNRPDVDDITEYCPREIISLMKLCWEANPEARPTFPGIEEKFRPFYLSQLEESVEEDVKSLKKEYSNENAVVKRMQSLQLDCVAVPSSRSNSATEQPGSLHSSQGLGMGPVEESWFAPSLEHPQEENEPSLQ
Procedure: Evaluation of Receptor-Interacting Protein Kinase 1 Inhibition.
The catalytic activity of RIPK1 was measured by monitoring the conversion of Adenosine triphosphate (ATP) to Adenosine diphosphate (ADP) due to autophosphorylation using an ADP-Glo kinase kit (Promega, catalog no. V9104).
After another 240 minutes incubation at room temperature, 5 μl Promega ADP-Glo reagent I were added to quench the reaction and deplete unconsumed ATP. After an incubation period of 30 minutes, 10 μl Promega ADP-Glo detection reagent II were added resulting in conversion of ADP to ATP, which generates a light-reaction between luciferase and luciferin. Luminescence was quantified after 30 minutes with a Pherastar FS (BMG LABTECH, Ortenberg).
The adjustment was obtained by nonlinear regression using the Levenberg Marquardt algorithm.

Row | pIC50 [2] | SMILES | pIC50 [1]
1 | 7.47 | COc1cc(N2CCC(C(=O)N3OCC[C@H]3c3cc(F)cc(C#N)c3)CC2)ncn1 [Example 4, (S)-3-fluoro-5-(2-(1-(6-methoxypyrimidin-4-yl)piperidine-4-carbonyl)isoxazolidin-3-yl)benzonitrile] | 7.10
2 |  | COc1ncnc(N2CCC(C(=O)N3OCC[C@H]3c3cc(F)cc(C#N)c3)CC2)c1F [Example 5, 3-fluoro-5-[(3S)-2-[1-(5-fluoro-6-methoxy-pyrimidin-4-yl)piperidine-4-carbonyl]isoxazolidin-3-yl]benzonitrile] | 8.10
